Ki and IC50 data for 16 compounds are collected here from patent US20040024024A1, “Aromatic sulfone hydroxamates and their use as protease inhibitors” (priority 2001, published 2004).

Common to all, as to assay type: biochemical
Experiment [1] has as its target T1, Human recombinant MMP-14 (Homo sapiens, UniProt P50281).
T1 construct: The catalytic domain enzyme was expressed in E. coli inclusion bodies, solubilized in urea; made in house
Briefly: In vitro MMP inhibition, Ki determination (fluorogenic substrate II). In outline:
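Refolded E. coli-expressed MMP-14 catalytic domain, APMA- or trypsin-activated, incubated 1 h at room temperature with 4 μM fluorogenic substrate II in pH 7.5 Tris/NaCl/CaCl2 buffer; fluorescence read at 330/420 nm. Ki from Morrison-equation non-linear regression, substrate at or below Km, uncorrected for substrate.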

A further experiment concerns the target T2, Human recombinant MMP-1 (Homo sapiens, UniProt P03956).
T2 construct: made in house; host or cells: MMP-1-transfected HT-1080 cells (spent media)
T2 sequence (P03956 100-469): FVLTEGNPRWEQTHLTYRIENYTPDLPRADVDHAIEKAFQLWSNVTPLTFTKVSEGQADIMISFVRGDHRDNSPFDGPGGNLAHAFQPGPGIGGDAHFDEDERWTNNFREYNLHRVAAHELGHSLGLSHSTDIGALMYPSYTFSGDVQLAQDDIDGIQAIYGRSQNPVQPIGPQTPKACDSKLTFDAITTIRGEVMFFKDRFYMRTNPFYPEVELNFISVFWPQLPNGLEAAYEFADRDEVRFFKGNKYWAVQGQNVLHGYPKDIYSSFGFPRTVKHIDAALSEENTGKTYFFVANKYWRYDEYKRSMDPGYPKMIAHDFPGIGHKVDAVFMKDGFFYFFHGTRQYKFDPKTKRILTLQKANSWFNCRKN
The experiment in a line: In vitro MMP inhibition, IC50 determination (fluorogenic substrate I). In outline:
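Inhibitor dilutions were made in 100 mM Tris-HCl/100 mM NaCl/10 mM CaCl2 buffer, pH 7.5, and incubated at room temperature with activated proenzyme (from transfected HT-1080 media; APMA or trypsin) and 4 μM quenched methoxycoumarin peptide substrate. Loss of 415 nm fluorescence (328 nm excitation) against concentration gave IC50.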

The next experiment deals with T3, Human recombinant MMP-13 (Homo sapiens, UniProt P45452).
T3 construct: made in house; host or cells: baculovirus / insect cells
The experiment is described as above. An outline of the steps: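 Fluorescence at 415 nm (excitation 328 nm) reports Gly-Leu cleavage of 4 μM quenched methoxycoumarin peptide substrate I. Human recombinant MMP-13, activated by trypsin or APMA, was incubated at room temperature with varied inhibitor concentrations in pH 7.5 Tris/NaCl/CaCl2 buffer; IC50 derived from reduced fluorescence.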

In experiment [2] the target is T1, Human recombinant MMP-14. The description is as above. An outline of the steps: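 IC50 came from reduced fluorescence (ex 328 nm, em 415 nm) as inhibitor concentration rose, with 4 μM substrate I cleaved at Gly-Leu. Room-temperature incubation in pH 7.5 Tris buffer with 10 mM CaCl2; the E. coli-expressed, refolded MMP-14 catalytic domain was activated with trypsin or APMA.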

The mark [3] stands for this setting: substrate (II) 4 μM, 1 hr room temperature, apparent Ki, values in parenthesis.
[4] abbreviates: substrate (I) 4 μM, room temperature, values not in parenthesis.

Structures can show the parent of a compound that is named as a salt.

Usually IC50 stands for the midpoint of a concentration-inhibition curve. As for `COCCN1CCC(C(=O)NO)(S(=O)(=O)c2ccc(OCCCc3nc(-c4ccc(OC(F)(F)F)cc4)no3)cc2)CC1` [Example 190], the Ki at Human recombinant MMP-14 [1] (value in parenthesis) is > 10 µM. Further, the IC50 on Human recombinant MMP-1 (value outside parenthesis) is > 10 µM; at Human recombinant MMP-13 (value outside parenthesis), 0.0005 µM; on Human recombinant MMP-14 [2] (value outside parenthesis), > 10 µM.

In the case of `O=C(NO)C1(S(=O)(=O)c2ccc(OCCCc3cccc(-c4ccsc4)c3)cc2)CCOCC1` [Example 632], the Ki on Human recombinant MMP-14 [1] (value in parentheses) is > 10 µM. The half-inhibitory concentration (IC50) at Human recombinant MMP-1 (value outside parentheses) was > 10 µM; at Human recombinant MMP-13 (value outside parentheses) it was 0.0016 µM; at Human recombinant MMP-14 [2] (value outside parentheses), > 10 µM.

Regarding `COCCN1CCC(C(=O)NO)(S(=O)(=O)c2ccc(OCCCc3nc(-c4ccccc4OC(F)(F)F)no3)cc2)CC1` [Example 152], the Ki on Human recombinant MMP-14 [1] (value in parenthesis) was > 10 µM. The half-maximal inhibitory concentration (IC50) on Human recombinant MMP-1 (value outside parenthesis) was > 10 µM; on Human recombinant MMP-13 (value outside parenthesis), 0.0118 µM; on Human recombinant MMP-14 [2] (value outside parenthesis), > 10 µM.

As for `O=C(NO)C1(S(=O)(=O)c2ccc(OCCCc3cccc(-c4cccs4)c3)cc2)CCOCC1` [Example 595], on Human recombinant MMP-14 [1] (value in parentheses), the Ki was > 10 µM. For the same compound, the IC50 on Human recombinant MMP-1 (value outside parentheses) is > 10 µM; on Human recombinant MMP-13 (value outside parentheses), 0.001 µM; on Human recombinant MMP-14 [2] (value outside parentheses) it was > 10 µM.

`O=C(NO)C1(S(=O)(=O)c2ccc(OCCCc3cccc(-c4ccc([N+](=O)[O-])cc4)c3)cc2)CCOCC1` [Example 626]: the Ki at Human recombinant MMP-14 [1] (value in parentheses) was > 10 µM. Further, the concentration for half-maximal inhibition (IC50) on Human recombinant MMP-1 (value outside parentheses) was > 10 µM; on Human recombinant MMP-13 (value outside parentheses), 0.0004 µM; on Human recombinant MMP-14 [2] (value outside parentheses), > 10 µM.

With `CCN1CCC(C(=O)NO)(S(=O)(=O)c2ccc(OCCCc3cccc(-c4ccccc4)c3)cc2)CC1` [Example 46], the Ki at Human recombinant MMP-14 [1] (setting [3]) is > 10 µM. Moreover, the concentration for half-maximal inhibition (IC50) was > 10 µM on Human recombinant MMP-1 (setting [4]), 0.0031 µM on Human recombinant MMP-13 (setting [4]) and > 10 µM on Human recombinant MMP-14 [2] (setting [4]).

With `O=C(NO)C1(S(=O)(=O)c2ccc(OCCc3cccc(-c4ccc(F)cc4)c3)cc2)CCOCC1` [Example 123], the Ki on Human recombinant MMP-14 [1] (value in parenthesis) was > 10 µM. Besides, the results for the half-maximal inhibitory concentration (IC50) at Human recombinant MMP-1 (value outside parenthesis), on Human recombinant MMP-13 (value outside parenthesis) and at Human recombinant MMP-14 [2] (value outside parenthesis) were > 10 µM, 0.0014 µM and > 10 µM, respectively.

Turning to `O=C(NO)C1(S(=O)(=O)c2ccc(OCCCc3cncc(-c4ccc(F)cc4)c3)cc2)CCOCC1` [Example 523], the Ki at Human recombinant MMP-14 [1] (value in parentheses) was > 10 µM. For the same compound, the IC50 at Human recombinant MMP-1 (value outside parentheses) is 8.07 µM; on Human recombinant MMP-13 (value outside parentheses), 0.0003 µM; at Human recombinant MMP-14 [2] (value outside parentheses), > 10 µM.

Turning to `O=C(NO)C1(S(=O)(=O)c2ccc(OCCCc3cccc(-c4ccc(F)cc4F)c3)cc2)CCOCC1` [Example 630], the Ki at Human recombinant MMP-14 [1] (value in parentheses) is > 10 µM. The IC50 at Human recombinant MMP-1 (value outside parentheses) is > 10 µM; at Human recombinant MMP-13 (value outside parentheses), 0.0004 µM; on Human recombinant MMP-14 [2] (value outside parentheses), > 10 µM.

For `O=C(NO)C1(S(=O)(=O)c2ccc(OCCc3cccc(-c4ccccc4F)c3)cc2)CCOCC1` [Example 115], the Ki on Human recombinant MMP-14 [1] (value in parenthesis) was > 10 µM. The 50% inhibitory concentration (IC50) is > 10 µM at Human recombinant MMP-1 (value outside parenthesis), 0.0009 µM on Human recombinant MMP-13 (value outside parenthesis) and > 10 µM at Human recombinant MMP-14 [2] (value outside parenthesis).

In the case of `O=C(NO)C1(S(=O)(=O)c2ccc(OCCOc3cccc(-c4ccccc4)c3)cc2)CCOCC1` [Example 157], the Ki on Human recombinant MMP-14 [1] (value in parenthesis) was > 10 µM. The IC50 was > 10 µM on Human recombinant MMP-1 (value outside parenthesis), 0.0035 µM at Human recombinant MMP-13 (value outside parenthesis) and > 10 µM at Human recombinant MMP-14 [2] (value outside parenthesis).

As to `O=C(NO)C1(S(=O)(=O)c2ccc(OCCCc3cccc(-c4ccoc4)c3)cc2)CCOCC1` [Example 637], the Ki on Human recombinant MMP-14 [1] (value in parentheses) is > 10 µM. The IC50 at Human recombinant MMP-1 (value outside parentheses) is > 10 µM; at Human recombinant MMP-13 (value outside parentheses), 0.0018 µM; on Human recombinant MMP-14 [2] (value outside parentheses), > 10 µM.

For `COCCN1CCC(C(=O)NO)(S(=O)(=O)c2ccc(OCCCc3nnc(-c4ccccc4C(F)(F)F)o3)cc2)CC1` [Example 178], the Ki on Human recombinant MMP-14 [1] (value in parenthesis) was > 10 µM. For the same compound, the IC50 was > 10 µM on Human recombinant MMP-1 (value outside parenthesis), 0.0078 µM at Human recombinant MMP-13 (value outside parenthesis) and > 10 µM at Human recombinant MMP-14 [2] (value outside parenthesis).

As for `COCCN1CCC(C(=O)NO)(S(=O)(=O)c2ccc(OCCCc3nc(-c4ccc(OC(F)(F)F)cc4)no3)cc2)CC1` [Example 42], on Human recombinant MMP-14 [1] (setting [3]), the Ki is > 10 µM. In addition, the figures for the concentration for half-maximal inhibition (IC50) at Human recombinant MMP-1 (setting [4]), on Human recombinant MMP-13 (setting [4]) and on Human recombinant MMP-14 [2] (setting [4]) were > 10 µM, 0.0003 µM and > 10 µM, respectively.

Turning to `O=C(NO)C1(S(=O)(=O)c2ccc(OCCCc3cc(-c4ccc(OC(F)(F)F)cc4)cs3)cc2)CCOCC1` [Example 608], the Ki on Human recombinant MMP-14 [1] (value in parentheses) was > 10 µM. Moreover, the half-inhibitory concentration (IC50) is > 10 µM at Human recombinant MMP-1 (value outside parentheses), 0.0066 µM on Human recombinant MMP-13 (value outside parentheses) and > 10 µM at Human recombinant MMP-14 [2] (value outside parentheses).

As to `CCN1CCC(C(=O)NO)(S(=O)(=O)c2ccc(OCCCc3nc(-c4ccc(OC(F)(F)F)cc4)no3)cc2)CC1` [Example 41, 1-ethyl-N-hydroxy 4-{[4-(3-{3-[4-(trifluoromethoxy)phenyl]-1,2,4-oxadiazol-5-yl}propoxy)phenyl]sulfonyl}piperidine-4-carboxamide Hydrochloride], the Ki on Human recombinant MMP-14 [1] (setting [3]) is > 10 µM. Further, the concentration for half-maximal inhibition (IC50) at Human recombinant MMP-1 (setting [4]) is > 10 µM; at Human recombinant MMP-13 (setting [4]) it was 0.002 µM; at Human recombinant MMP-14 [2] (setting [4]), > 10 µM.
